“Also recorded” adds a separate entry of the source. Structures can show the parent of a compound that is named as a salt. Where two headings read alike, the source gives them in different places.
Test system: pediatric patients with recurrent or refractory solid and CNS tumors
[1] = Dose Level 1, 80 mg/m^2, Part A, 6 evaluable
[2] = Dose Level 2, 100 mg/m^2, Part A, 5 evaluable
[3] = Dose Level 3, 125 mg/m^2, Part A, 4 evaluable
[4] = Dose Level 4, 150 mg/m^2, Part A, 5 evaluable
[5] = Dose Level 4, 150 mg/m^2, Part PK (expansion cohort), 5 evaluable
[6] = cycle 1, All Dose Levels (N=25)
[7] = cycle 1, Dose Level 1 (N=6), 80 mg/m^2
[8] = cycle 1, Dose Level 2 (N=5), 100 mg/m^2
[9] = cycle 1, Dose Level 3 (N=4), 125 mg/m^2
[10] = cycle 1, Dose Level 4 (N=10), 150 mg/m^2
[11] = cycle 1, drug-related, all dose levels, 25 evaluable

## COc1cccc(OCCCN)c1-c1cc(Nc2cnc(C#N)cn2)n[nH]1 [prexasertib, Prexasertib mesylate monohydrate]
22/25 patients
  Grade 4 neutropenia, patients: 88%
[1]
  No. of Patients with Cycle 1 DLTs: 0
  No. of Patients with Later-Cycle DLTs: 0
[2]
  No. of Patients with Cycle 1 DLTs: 0
  No. of Patients with Later-Cycle DLTs: 0
[3]
  No. of Patients with Cycle 1 DLTs: 0
  No. of Patients with Later-Cycle DLTs: 0
[4]
  No. of Patients with Cycle 1 DLTs: 0
  No. of Patients with Later-Cycle DLTs: 0
[5]
  No. of Patients with Cycle 1 DLTs: 0
  No. of Patients with Later-Cycle DLTs: 0
IV days 1 and 15 of 28-day cycle, up to 150 mg/m^2
  maximum tolerated dose (MTD): not defined; also recorded: not reached; also recorded: did not reach
[6]
  Alanine aminotransferase increased, All: 5 (20) No. (%)
  Alanine aminotransferase increased, ≥ Grade 3: 1 (4) No. (%)
  Anemia, All: 19 (76) No. (%)
  Anemia, ≥ Grade 3: 3 (12) No. (%)
  Anorexia, All: 3 (12) No. (%)
  Anorexia, ≥ Grade 3: 0 (0) No. (%)
  Aspartate aminotransferase increased, All: 4 (16) No. (%)
  Aspartate aminotransferase increased, ≥ Grade 3: 0 (0) No. (%)
  Diarrhea, All: 4 (16) No. (%)
  Diarrhea, ≥ Grade 3: 0 (0) No. (%)
  Electrocardiogram QT corrected interval prolonged, All: 9 (36) No. (%)
  Electrocardiogram QT corrected interval prolonged, ≥ Grade 3: 0 (0) No. (%)
  Fatigue, All: 6 (24) No. (%)
  Fatigue, ≥ Grade 3: 0 (0) No. (%)
  Headache, All: 3 (12) No. (%)
  Headache, ≥ Grade 3: 0 (0) No. (%)
  Hypokalemia, All: 5 (20) No. (%)
  Hypokalemia, ≥ Grade 3: 0 (0) No. (%)
  Hypophosphatemia, All: 4 (16) No. (%)
  Hypophosphatemia, ≥ Grade 3: 0 (0) No. (%)
  Infusion-related reaction, All: 3 (12) No. (%)
  Infusion-related reaction, ≥ Grade 3: 0 (0) No. (%)
  Lymphocyte count decreased, All: 12 (48) No. (%)
  Lymphocyte count decreased, ≥ Grade 3: 6 (24) No. (%)
  Myalgia, All: 3 (12) No. (%)
  Myalgia, ≥ Grade 3: 0 (0) No. (%)
  Nausea, All: 5 (20) No. (%)
  Nausea, ≥ Grade 3: 0 (0) No. (%)
  Neutrophil count decreased, All: 25 (100) No. (%)
  Neutrophil count decreased, ≥ Grade 3: 25 (100) No. (%)
  Platelet count decreased, All: 21 (84) No. (%)
  Platelet count decreased, ≥ Grade 3: 6 (24) No. (%)
  Vomiting, All: 6 (24) No. (%)
  Vomiting, ≥ Grade 3: 0 (0) No. (%)
  White blood cell decreased, All: 24 (96) No. (%)
  White blood cell decreased, ≥ Grade 3: 17 (68) No. (%)
[7]
  Alanine aminotransferase increased, All: 2 (33) No. (%)
  Alanine aminotransferase increased, ≥ Grade 3: 0 (0) No. (%)
  Anemia, All: 5 (83) No. (%)
  Anemia, ≥ Grade 3: 0 (0) No. (%)
  Anorexia, All: 2 (33) No. (%)
  Anorexia, ≥ Grade 3: 0 (0) No. (%)
  Aspartate aminotransferase increased, All: 0 (0) No. (%)
  Aspartate aminotransferase increased, ≥ Grade 3: 0 (0) No. (%)
  Diarrhea, All: 2 (33) No. (%)
  Diarrhea, ≥ Grade 3: 0 (0) No. (%)
  Electrocardiogram QT corrected interval prolonged, All: 2 (33) No. (%)
  Electrocardiogram QT corrected interval prolonged, ≥ Grade 3: 0 (0) No. (%)
  Fatigue, All: 0 (0) No. (%)
  Fatigue, ≥ Grade 3: 0 (0) No. (%)
  Headache, All: 0 (0) No. (%)
  Headache, ≥ Grade 3: 0 (0) No. (%)
  Hypokalemia, All: 0 (0) No. (%)
  Hypokalemia, ≥ Grade 3: 0 (0) No. (%)
  Hypophosphatemia, All: 1 (17) No. (%)
  Hypophosphatemia, ≥ Grade 3: 0 (0) No. (%)
  Infusion-related reaction, All: 1 (17) No. (%)
  Infusion-related reaction, ≥ Grade 3: 0 (0) No. (%)
  Lymphocyte count decreased, All: 3 (50) No. (%)
  Lymphocyte count decreased, ≥ Grade 3: 2 (33) No. (%)
  Myalgia, All: 0 (0) No. (%)
  Myalgia, ≥ Grade 3: 0 (0) No. (%)
  Nausea, All: 1 (17) No. (%)
  Nausea, ≥ Grade 3: 0 (0) No. (%)
  Neutrophil count decreased, All: 6 (100) No. (%)
  Neutrophil count decreased, ≥ Grade 3: 6 (100) No. (%)
  Platelet count decreased, All: 4 (67) No. (%)
  Platelet count decreased, ≥ Grade 3: 1 (17) No. (%)
  Vomiting, All: 1 (17) No. (%)
  Vomiting, ≥ Grade 3: 0 (0) No. (%)
  White blood cell decreased, All: 5 (83) No. (%)
  White blood cell decreased, ≥ Grade 3: 4 (67) No. (%)
[8]
  Alanine aminotransferase increased, All: 2 (40) No. (%)
  Alanine aminotransferase increased, ≥ Grade 3: 1 (20) No. (%)
  Anemia, All: 3 (60) No. (%)
  Anemia, ≥ Grade 3: 1 (20) No. (%)
  Anorexia, All: 0 (0) No. (%)
  Anorexia, ≥ Grade 3: 0 (0) No. (%)
  Aspartate aminotransferase increased, All: 3 (60) No. (%)
  Aspartate aminotransferase increased, ≥ Grade 3: 0 (0) No. (%)
  Diarrhea, All: 1 (20) No. (%)
  Diarrhea, ≥ Grade 3: 0 (0) No. (%)
  Electrocardiogram QT corrected interval prolonged, All: 1 (20) No. (%)
  Electrocardiogram QT corrected interval prolonged, ≥ Grade 3: 0 (0) No. (%)
  Fatigue, All: 2 (40) No. (%)
  Fatigue, ≥ Grade 3: 0 (0) No. (%)
  Headache, All: 0 (0) No. (%)
  Headache, ≥ Grade 3: 0 (0) No. (%)
  Hypokalemia, All: 2 (40) No. (%)
  Hypokalemia, ≥ Grade 3: 0 (0) No. (%)
  Hypophosphatemia, All: 0 (0) No. (%)
  Hypophosphatemia, ≥ Grade 3: 0 (0) No. (%)
  Infusion-related reaction, All: 1 (20) No. (%)
  Infusion-related reaction, ≥ Grade 3: 0 (0) No. (%)
  Lymphocyte count decreased, All: 2 (40) No. (%)
  Lymphocyte count decreased, ≥ Grade 3: 0 (0) No. (%)
  Myalgia, All: 1 (20) No. (%)
  Myalgia, ≥ Grade 3: 0 (0) No. (%)
  Nausea, All: 1 (20) No. (%)
  Nausea, ≥ Grade 3: 0 (0) No. (%)
  Neutrophil count decreased, All: 5 (100) No. (%)
  Neutrophil count decreased, ≥ Grade 3: 5 (100) No. (%)
  Platelet count decreased, All: 5 (100) No. (%)
  Platelet count decreased, ≥ Grade 3: 2 (40) No. (%)
  Vomiting, All: 1 (20) No. (%)
  Vomiting, ≥ Grade 3: 0 (0) No. (%)
  White blood cell decreased, All: 5 (100) No. (%)
  White blood cell decreased, ≥ Grade 3: 3 (60) No. (%)
[9]
  Alanine aminotransferase increased, All: 0 (0) No. (%)
  Alanine aminotransferase increased, ≥ Grade 3: 0 (0) No. (%)
  Anemia, All: 3 (75) No. (%)
  Anemia, ≥ Grade 3: 1 (25) No. (%)
  Anorexia, All: 0 (0) No. (%)
  Anorexia, ≥ Grade 3: 0 (0) No. (%)
  Aspartate aminotransferase increased, All: 0 (0) No. (%)
  Aspartate aminotransferase increased, ≥ Grade 3: 0 (0) No. (%)
  Diarrhea, All: 0 (0) No. (%)
  Diarrhea, ≥ Grade 3: 0 (0) No. (%)
  Electrocardiogram QT corrected interval prolonged, All: 2 (50) No. (%)
  Electrocardiogram QT corrected interval prolonged, ≥ Grade 3: 0 (0) No. (%)
  Fatigue, All: 2 (50) No. (%)
  Fatigue, ≥ Grade 3: 0 (0) No. (%)
  Headache, All: 1 (25) No. (%)
  Headache, ≥ Grade 3: 0 (0) No. (%)
  Hypokalemia, All: 1 (25) No. (%)
  Hypokalemia, ≥ Grade 3: 0 (0) No. (%)
  Hypophosphatemia, All: 0 (0) No. (%)
  Hypophosphatemia, ≥ Grade 3: 0 (0) No. (%)
  Infusion-related reaction, All: 0 (0) No. (%)
  Infusion-related reaction, ≥ Grade 3: 0 (0) No. (%)
  Lymphocyte count decreased, All: 2 (50) No. (%)
  Lymphocyte count decreased, ≥ Grade 3: 2 (50) No. (%)
  Myalgia, All: 0 (0) No. (%)
  Myalgia, ≥ Grade 3: 0 (0) No. (%)
  Nausea, All: 0 (0) No. (%)
  Nausea, ≥ Grade 3: 0 (0) No. (%)
  Neutrophil count decreased, All: 4 (100) No. (%)
  Neutrophil count decreased, ≥ Grade 3: 4 (100) No. (%)
  Platelet count decreased, All: 4 (100) No. (%)
  Platelet count decreased, ≥ Grade 3: 2 (50) No. (%)
  Vomiting, All: 0 (0) No. (%)
  Vomiting, ≥ Grade 3: 0 (0) No. (%)
  White blood cell decreased, All: 4 (100) No. (%)
  White blood cell decreased, ≥ Grade 3: 3 (75) No. (%)
[10]
  Alanine aminotransferase increased, All: 1 (10) No. (%)
  Alanine aminotransferase increased, ≥ Grade 3: 0 (0) No. (%)
  Anemia, All: 8 (80) No. (%)
  Anemia, ≥ Grade 3: 1 (10) No. (%)
  Anorexia, All: 1 (10) No. (%)
  Anorexia, ≥ Grade 3: 0 (0) No. (%)
  Aspartate aminotransferase increased, All: 1 (10) No. (%)
  Aspartate aminotransferase increased, ≥ Grade 3: 0 (0) No. (%)
  Diarrhea, All: 1 (10) No. (%)
  Diarrhea, ≥ Grade 3: 0 (0) No. (%)
  Electrocardiogram QT corrected interval prolonged, All: 4 (40) No. (%)
  Electrocardiogram QT corrected interval prolonged, ≥ Grade 3: 0 (0) No. (%)
  Fatigue, All: 2 (20) No. (%)
  Fatigue, ≥ Grade 3: 0 (0) No. (%)
  Headache, All: 2 (20) No. (%)
  Headache, ≥ Grade 3: 0 (0) No. (%)
  Hypokalemia, All: 2 (20) No. (%)
  Hypokalemia, ≥ Grade 3: 0 (0) No. (%)
  Hypophosphatemia, All: 3 (30) No. (%)
  Hypophosphatemia, ≥ Grade 3: 0 (0) No. (%)
  Infusion-related reaction, All: 1 (10) No. (%)
  Infusion-related reaction, ≥ Grade 3: 0 (0) No. (%)
  Lymphocyte count decreased, All: 5 (50) No. (%)
  Lymphocyte count decreased, ≥ Grade 3: 2 (20) No. (%)
  Myalgia, All: 2 (20) No. (%)
  Myalgia, ≥ Grade 3: 0 (0) No. (%)
  Nausea, All: 3 (30) No. (%)
  Nausea, ≥ Grade 3: 0 (0) No. (%)
  Neutrophil count decreased, All: 10 (100) No. (%)
  Neutrophil count decreased, ≥ Grade 3: 10 (100) No. (%)
  Platelet count decreased, All: 8 (80) No. (%)
  Platelet count decreased, ≥ Grade 3: 1 (10) No. (%)
  Vomiting, All: 4 (40) No. (%)
  Vomiting, ≥ Grade 3: 0 (0) No. (%)
  White blood cell decreased, All: 10 (100) No. (%)
  White blood cell decreased, ≥ Grade 3: 7 (70) No. (%)
[11]
  grade 3/4 anemia, patients: 12%
  grade 3/4 leukopenia, patients: 68%
  grade 3/4 lymphopenia, patients: 24%
  grade 3/4 neutropenia, patients: 100%
  grade 3/4 thrombocytopenia, patients: 24%
Cycle 1 or later, all dose levels 80-150 mg/m^2
  dose-limiting toxicities (DLTs): no cycle 1 or later dose-limiting toxicities; also recorded: No DLTs
